In patent publication US20230088717A1, “NEW IMMUNOSTIMULATORS AND USE THEREOF IN IMMUNOTHERAPY” (NANTES UNIVERSITÉ, priority 2020, published 2023):
Like-named read-outs stand apart in the source and are kept apart here.

Assays:
iNKT cells [1] = assay: iNKT cell activation: cytokine secretion (ELISA) after co-culture with glycolipid-loaded CD1d-transfected HEK293 or HeLa cells; type: cell-based, human; conditions: for Delta LogEC50 IFN-γ / Delta LogEC50 IL-2 / Delta LogEC50 IL-13: KRN7000 vs 6-PEG3-NH2-GalCer; for EC50: Homo sapiens, iNKT, 6 h; for EC50 / LogEC50 IFN-γ / LogEC50 IL-2 / LogEC50 IL-13: 6 h co-culture
Experimental: (§1) Classically, CD1d expressing cells are incubated overnight in presence or in the absence of the compound to be assessed, allowing loading on the CD1d molecule. Then, CD1d cells are co-incubated with iNKTs. Six hours of co-culture are sufficient to be able to detect most of the cytokine release (such as IFN-γ, IL-13 and/or IL-2) in the supernatant. Various time of incubation, up to 48H, can be performed depending of the kinetic of some late cytokines (such as IL-10). The quantity or concentration of at least one cytokine is thus measured in the supernatant after an incubation time of from 6 hours to 48 hours. An increased quantity or concentration of at least one cytokine in the presence of the assessed compound by comparison to in its absence means that said compound is a iKNT stimulator.
(§2) To analyse ability of 6-PEG3-NHR-GalCer 2 and 6-Mal-PEGn-GalCer 3 to activate iNKTs, several types of presenting cells were used, such as HEK293 or HeLa cells transfected to express CD1d molecule on their membrane. Non-transfected cells were also used as negative control “at first glance” since presentation of glycolipids to iNKT cells is known to be dependent on CD1d.
(§3) These cells were then used as antigen presenting cells (APC) to compare the iNKT cell activation potency of the canonical α-GalCer (KRN7000) ligand to that of the analogue 6″-modified with an aminoPEG linking arm 6-PEG3-NH2-GalCer 2a. APC were loaded with glycolipids after co-incubation at various concentrations overnight. Next day, cells were washed and co-cultured with iNKTs (2 APC for 1 iNKT). After 6 hours, supernatants were collected, and cytokines secretions (IFN-γ and IL-2 for Th1 panel and IL-13 for Th2 panel) was measured by ELISA (FIGS. 2 and 3)
(§4) 6-PEG3-NHR-GalCer analogues of 6-PEG3-NH2-GalCer 2a were evaluated on transfected CD1d and non-CD1d Hela and HEK293 cells for secretion of INF-γ and IL13 stimulation (see FIGS. 10 and 11).

iNKT cells [2] = assay: iNKT cell activation: cytokine secretion after co-culture with glycolipid-loaded non-transfected (non-CD1d) tumor cells; type: cell-based, human; conditions: for secretion of cytokines: non-CD1d Hela and HEK293 cells
Experimental: as §1, §2, §3
To confirm this discovery, various other colon, lung, embryonic kidney, cervical cancer cells lines were screened by RT-PCR to define those that express small levels of CD1d and to confirm their ability to self-present the new potent iNKT agonist (see Table 6).
as §4

CD1d = target: T1, CD1d (Homo sapiens, UniProt P15813); assay: CD1d-dependency of iNKT activation: cytokine secretion in presence of anti-CD1d antibody; type: cell-based
T1 construct: endogenous in cells; host or cells: HEK293 (non-transfected) and HEK293-CD1d (transfected to express CD1d)
Experimental: It was then checked whether iNKT cells activation might be provided by a very low expression of CD1d on the proper non-CD1d tumor cells that cannot be detected by flow cytometry. To this aim, the same activation experiments were performed but in presence of an anti-CD1d antibody. HEK293 cells and HEK293-CD1d were loaded with 6-PEG3-NH2-GalCer a2 as described previously. Before co-culture with iNKTs cells, loaded presenting cells were co-incubated with the anti-CD1d antibody for 1 hours, iNKTs were added directly in suspension and co-cultured 6 hours before cytokine analysis in supernatant (ELISA). If activation signal was provided by presentation of the modified glycolipid through CD1d, it was expected to observe a blockage, or at least a decrease, of cytokine secretion after blocking the signal with the anti-CD1d antibody.

HeLa-CD1d cells = assay: Cytotoxicity induced by iNKTs on HeLa-CD1d cells (flow cytometry); type: cell-based; conditions: HeLa CD1d transfected cells, 24 hours co-culture (FIG. 7)
Experimental: Moreover, 6-PEG3-NH2-GalCer 2a is not only one of a strongest activator of iNKTs cells known for cytokine secretions, but that he is also able to induce a better iNKT cytotoxicity effect than KRN7000. iNKT were co-cultured with HeLa CD1 d transfected cells for 24 hours in presence of various concentration of glycolipids, then, mortality of target HeLa-CD1d cells was analysed by Flow Cytometry.

iNKT cells in PBMC = assay: iNKT phenotyping: expansion of iNKT cells in PBMC, CD8+/CD4+; type: cell-based, human; conditions: PBMC cultured ten days with high dose of glycolipid (FIG. 8)
Experimental: Comparative study was run to establish either a CD4 or CD8 orientation of the immune response can be induced using 6-PEG3-NH2-GalCer 2a vs KRN7000 (see FIG. 8). PBMC were cultured in presence of an high dose of KRN or 6-PEG3-NH2-GalCer 2a, after ten days, phenotype of iNKTs was analysed by Flow Cytometry.

HeLa-CD1d spheroid = assay: Cytotoxicity induced by iNKTs on HeLa-CD1d 3D spheroid model; type: cell-based; conditions: 72 hours, preliminary data (FIG. 9B)
[3] = HEK293 (embryonic kidney), non transfected, as presenting cells
[4] = HeLa (cervix), non transfected, as presenting cells
[5] = Meso13 (mesotheliome) as presenting cells
[6] = Meso34 (mesotheliome) as presenting cells
[7] = Meso225 (mesotheliome) as presenting cells
[8] = SW1116 (colon) as presenting cells

T1 sequence (P15813 20-335): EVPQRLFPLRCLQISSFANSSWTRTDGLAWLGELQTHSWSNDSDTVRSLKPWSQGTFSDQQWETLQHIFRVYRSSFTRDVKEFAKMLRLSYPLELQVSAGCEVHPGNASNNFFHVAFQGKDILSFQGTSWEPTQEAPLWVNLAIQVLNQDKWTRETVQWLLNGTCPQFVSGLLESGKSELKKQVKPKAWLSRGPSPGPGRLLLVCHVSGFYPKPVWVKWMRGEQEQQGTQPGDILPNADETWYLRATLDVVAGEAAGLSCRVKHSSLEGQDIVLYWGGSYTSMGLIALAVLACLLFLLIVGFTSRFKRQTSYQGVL
T1 sequence (P61769 21-119 partner): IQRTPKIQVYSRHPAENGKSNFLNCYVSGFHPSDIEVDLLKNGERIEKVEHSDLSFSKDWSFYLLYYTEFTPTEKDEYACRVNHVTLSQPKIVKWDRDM

For `CCCCCCCCCCCCCCCCCCCCCCCCCC(=O)N[C@@H](CO[C@H]1OC(COC(=O)NCCOCCOCCOCCNC(=O)CCOCCOCCOCCOCCOCCOCCNC(=O)CCN2C(=O)C=CC2=O)[C@H](O)C(O)[C@@H]1O)[C@H](O)[C@H](O)CCCCCCCCCCCCCC` (some centres unmarked) [6-Mal-PEG6-GalCer 3a], the “iNKT activation potency (cytokine release) relative to KRN7000” value (iNKT cells [1]; general statement, presenting cells not specified at the place) was about 10 fold.
In the case of `CCCCCCCCCCCCCCCCCCCCCCCCCC(=O)N[C@@H](CO[C@H]1OC(COC(=O)NCCOCCOCCOCCN)[C@H](O)C(O)[C@@H]1O)[C@H](O)[C@H](O)CCCCCCCCCCCCCC` (some centres unmarked) [6-PEG3-NH2-GalCer 2a], the “cytokine secretion / iNKT activation potency relative to KRN7000” value (iNKT cells [1]; CD1d-transfected HEK293 / HeLa cells) is reported as about 100 fold, the “Delta LogEC50 IFN-γ” value (iNKT cells [1]; HEK293-CD1d) is reported as 2.333 and the “Delta LogEC50 IL-2” value (iNKT cells [1]; HEK293-CD1d) is reported as 1.55. For the same compound, the “Delta LogEC50 IL-13” value (iNKT cells [1]; HEK293-CD1d) was 2.534, the “Delta LogEC50 IFN-γ” value (iNKT cells [1]; HeLa-CD1d) was 1.877 and the “Delta LogEC50 IL-2” value (iNKT cells [1]; HeLa-CD1d) was 1.495. The “Delta LogEC50 IL-13” value (iNKT cells [1]; HeLa-CD1d) was 2.089, the EC50 (iNKT cells [1]; HEK293-CD1d presenting cells, read-out: LogEC50 IFN-γ (converted)) was 0.0166 nM and the EC50 (iNKT cells [1]; HEK293-CD1d presenting cells, read-out: LogEC50 IL-2 (converted)) was 0.0589 nM. It also gave an EC50 (iNKT cells [1]; HEK293-CD1d presenting cells, read-out: LogEC50 IL-13 (converted)) of 0.0324 nM, an EC50 (iNKT cells [1]; HeLa-CD1d presenting cells, read-out: LogEC50 IFN-γ (converted)) of 0.0295 nM and an EC50 (iNKT cells [1]; HeLa-CD1d presenting cells, read-out: LogEC50 IL-2 (converted)) of 0.0155 nM. The EC50 (iNKT cells [1]; HeLa-CD1d presenting cells, read-out: LogEC50 IL-13 (converted)) was 0.117 nM, the “IFN-γ secretion 10^−7M” value (iNKT cells [2]; HCT116 (colon) as presenting cells) was “Low” and the “IFN-γ secretion 10^−7M” value (iNKT cells [2]; [3]) was “High”. The “IFN-γ secretion 10^−7M” value (iNKT cells [2]; [4]) was “High”, the “IFN-γ secretion 10^−7M” value (iNKT cells [2]; [5]) was “High” and the “IFN-γ secretion 10^−7M” value (iNKT cells [2]; [6]) was “High”. For the same compound, the “IFN-γ secretion 10^−7M” value (iNKT cells [2]; [7]) was “High”, the “IFN-γ secretion 10^−7M” value (iNKT cells [2]; [8]) was “High” and the “secretion of cytokines” value (iNKT cells [2]) was “significant dose response secretion of cytokines”. The “inhibition of cytokine (IL-2) secretion by anti-CD1d antibody” value (CD1d; CD1d-HEK293 positive cells (FIG. 5A)) was “only an incomplete inhibition”, the “inhibition of cytokine (IL-2) secretion by anti-CD1d antibody” value (CD1d; non transfected (non CD1d) HEK293 cells (FIG. 5B)) was “almost completely eliminated” and the “efficiency to induce iNKT cytotoxicity relative to KRN7000” value (HeLa-CD1d cells) was at least 10 fold. For the same compound, the “CD8+ / CD4+ orientation of the iNKT response” value (iNKT cells in PBMC) was “induces a higher cytotoxic CD8+ response from PBMC cells than KRN7000” and the “induction of cell death compared with KRN7000” value (HeLa-CD1d spheroid) was “more efficient than KRN7000 to induce cell death”.
`CCCCCCCCCCCCCCCCCCCCCCCCCC(=O)N[C@@H](CO[C@H]1O[C@H](CO)[C@H](O)[C@H](O)[C@H]1O)[C@H](O)[C@H](O)CCCCCCCCCCCCCC` [KRN7000, reference compound] was tested, and the “LogEC50 IFN-γ” value (iNKT cells [1]; HEK293-CD1d presenting cells) was −8.447, the “LogEC50 IL-2” value (iNKT cells [1]; HEK293-CD1d presenting cells) was −8.680 and the “LogEC50 IL-13” value (iNKT cells [1]; HEK293-CD1d presenting cells) was −7.956. For the same compound, the “LogEC50 IFN-γ” value (iNKT cells [1]; HeLa-CD1d presenting cells) was −8.653, the “LogEC50 IL-2” value (iNKT cells [1]; HeLa-CD1d presenting cells) was −9.315 and the “LogEC50 IL-13” value (iNKT cells [1]; HeLa-CD1d presenting cells) was −7.841. For the same compound, the “IFN-γ secretion 10^−7M” value (iNKT cells [2]; [3]) was “Low”, the “IFN-γ secretion 10^−7M” value (iNKT cells [2]; [4]) was “Low” and the “IFN-γ secretion 10^−7M” value (iNKT cells [2]; [5]) was “Low”. The “IFN-γ secretion 10^−7M” value (iNKT cells [2]; [6]) was “Low”, the “IFN-γ secretion 10^−7M” value (iNKT cells [2]; [7]) was “Low” and the “IFN-γ secretion 10^−7M” value (iNKT cells [2]; [8]) was “Low”. The “secretion of cytokines” value (iNKT cells [2]) was “very poorly active or ineffective” and the “CD8+ / CD4+ orientation of the iNKT response” value (iNKT cells in PBMC) was “seems to not distinguish CD4+ to CD8+ cells stimulation”.
